Laboratory results from PMC9109057, “Designing Self‐Assembling Chimeric Peptide Nanoparticles with High Stability for Combating Piglet Bacterial Infections” (Advanced Science, 2022).
In brackets after ≈: the same amount, converted by molar mass. Where a SMILES comes first, the peptide text is derived from it. [ ]: non-standard residue; d: D form. The star is where a group is joined. PEG8 = NCCOCCOCCOCCOCCOCCOCCOCCOCCC(=O)O; Myristoyl = CCCCCCCCCCCCCC(=O)*

Key:
HEK293T cells = assay: Cytotoxicity assay (MTT; SYTO9/PI live/dead imaging); format: cell-based, Human; conditions: 64 × 10^−6 M, 2 h, 37 °C, laser confocal microscope
Procedure: 3‐(4,5‐dimethylthiazol‐2‐yl)‐2,5‐diphenyltetrazolium bromide (MTT) dye was used to determine the cytotoxicity of the peptide nanoparticles.^[ [47] ^] Human embryonic kidney (HEK) 293T cells were seeded into 96‐well plates at a concentration of (1–2) × 10^5 cells per well in high glucose DMEM and placed in a cell incubator (5% CO2, 37 °C) for 24 h. After discarding the medium, peptides (100 µL) were added with a concentration range of 0.125 × 10^−6–64 × 10^−6 M to wells 1–10 of a 96‐well plate and incubated at 37 ℃ for 2 h. Samples without peptides were used as positive controls and samples without cells were used as negative controls. Subsequently, 20 µL of MTT (5 mg mL^−1) was added to each well before another 4 h of incubation. After discarding the supernatant, 150 µL of dimethyl sulfoxide was added to each well of the 96‐well plate, to fully dissolve the crystals; then, the absorbance at a wavelength of 570 nm was measured using a microplate reader. Each test was performed in duplicate and repeated three times. Cell viability was expressed as a percentage. For laser confocal microscope samples, after the peptides (the final concentration is 64 × 10^−6 M) were added to a 96‐well plate, the final concentration of 5 × 10^−6 M SYTO9 and 20 µg mL^−1 PI dye was added to a 96‐well plate, and incubated at 37 ℃ for 2 h. Cells were imaged using a laser scanning confocal microscope. A sample without peptide nanoparticles was used as a control.

E. coli ATCC25922 = format: cell-based
Procedure: (§1) The MICs of the self‐assembling peptide nanoparticles were determined using the modified broth microdilution method.^[ [46] ^] The bacteria were resuspended in a logarithmic growth phase in a Mueller–Hinton broth (MHB) medium, the optical density (OD) at a wavelength of 600 nm was adjusted to ≈ 0.4, and the suspension was diluted 1000 times with MHB. In a 96‐well plate, the peptides were diluted via multiple dilutions using a 0.2% bovine serum albumin solution to a concentration range of 0.25 × 10^−6–128 × 10^−6 M. Subsequently, the diluted bacterial solution and peptide solution were mixed in a 1:1 ratio in a 96‐well plate and incubated at 37 °C. After 18–24 h, the absorbance at 492 nm was measured using a microplate reader. The MIC value was defined as the lowest peptide nanoparticle concentration without bacterial growth. Each test was performed in duplicate and repeated three times.

S. aureus ATCC6538 = format: cell-based
Procedure: as §1

S.epidermidis 49134 = format: cell-based
Procedure: as §1

S. aureus CVCC1882 = format: cell-based
Procedure: as §1

P. aeruginosa 27853 = format: cell-based
Procedure: as §1

porcine red blood cells = format: cell-based; conditions: pH 7.4
Procedure: Fresh porcine red blood cells were used to study the hemolysis of self‐assembled peptide nanoparticles.^[ [48] ^] The red blood cells were collected by washing with PBS (10 × 10^−3 M, pH 7.4) until the supernatant became clear. A 10% v/v red blood cell suspension was prepared with PBS, and peptide nanoparticles with a final concentration of 128 × 10^−6 M were added to the suspension (1 mL). After gentle incubation at 37 °C for 2 h, the cells were centrifuged at 6000 rpm for 5 min, and the absorbance of the supernatant was measured at 570 nm. Two red blood cell suspensions (one containing 0.2% Triton X‐100, the other without peptide nanoparticles) were used as positive and negative controls, respectively. The hemolysis of each sample was calculated, and images were collected.

trypsin = assay: Protease stability assay (MIC and RP-HPLC read-out); format: in vitro ADME; conditions: equal volumes of peptide 2560 × 10^−6 M and trypsin 8 mg mL^−1, 37 °C, 1 h; MIC vs E. coli ATCC25922 and S. aureus ATCC6538; n = 6
Procedure: (§2) An equal volume of peptide nanoparticles (2560 × 10^−6 M) and pepsin, trypsin, or chymotrypsin (8 mg mL^−1) was mixed and incubated at 37 °C for 1 h. Then, the MICs of peptide nanoparticles against E. coli ATCC25922 and S. aureus ATCC6538 were measured using the above‐mentioned method. Each test was performed in duplicate and repeated three times.
(§3) For RP‐HPLC, an equal volume of peptide nanoparticles (2560 × 10^−6 M) and pepsin, trypsin, or chymotrypsin (4 or 8 mg mL^−1) was mixed. The mixed solution was incubated at 37 °C for a predetermined time (0, 2, 4, or 8 h), and the protease was completely inactivated by heating in boiling water at 100 °C for 5 min. The concentration of peptide nanoparticles in the samples was then diluted to 256 × 10^−6 M, and the samples were analyzed using an RP‐HPLC system equipped with an Acchorm Unitary C18 column (5 µm, 100 Å, 4.6 mm × 250 mm). A gradient of 42% to 96% acetonitrile in water with 0.1% trifluoroacetic acid was used as the mobile phase at a flow rate of 0.8 mL min^−1. UV detection was performed at a wavelength of 214 nm.

pepsin = molecular target: T1, pepsin (Sus scrofa, UniProt P00791); assay: as above; format: in vitro ADME; conditions: for Antibacterial activity (MIC) after treatment with pepsin: equal volumes of peptide 2560 × 10^−6 M and pepsin 8 mg mL^−1, 37 °C, 1 h, MIC vs E. coli ATCC25922 and S. aureus ATCC6538, n = 6; for RP-HPLC peak shape and area after treatment with pepsin: pepsin 4 or 8 mg mL^−1, 37 °C, 8 h vs 0 h control, C18 RP-HPLC, UV 214 nm
T1 construct: purchased Sigma-Aldrich (China)
Procedure: as §2, §3

chymotrypsin = molecular target: T2, chymotrypsin (Bos taurus, UniProt P00766); assay: as above; format: in vitro ADME; conditions: equal volumes of peptide 2560 × 10^−6 M and chymotrypsin 8 mg mL^−1, 37 °C, 1 h; MIC vs E. coli ATCC25922 and S. aureus ATCC6538; n = 6
T2 construct: purchased Sigma-Aldrich (China)
Procedure: as §2, §3

C57BL/6 mice = conditions: mouse, in vivo, ip
Procedure: Healthy female C57BL/6 mice (weight is about 20 g) were randomly divided into five groups with six replicates per group. Mice were acclimated for 3 d in an environment of suitable temperature (20–24 °C), humidity (50–60%), and alternating light and dark. During the assay, the first group of mice was intraperitoneally injected with 150 µL of saline (once daily), and the second to fifth groups of mice were intraperitoneally injected with 150 µL nanoparticles NPs1 or NPs2 at doses of 15 and 30 mg kg^−1 (once daily). Continuous injection was given for 7 days. At 12 h after the last administration, the mice were euthanized using mild ether anesthesia. Blood samples were taken from the mice's orbital vein, and serum was analyzed using an automatic biochemical analyzer. The kidneys and livers of the mice were taken, weighed, and fixed with 4% paraformaldehyde; then, histological analysis was performed via H&E staining.

C. rodentium DBS100 = format: cell-based
Procedure: as §1

T1 sequence (P00791 60-385): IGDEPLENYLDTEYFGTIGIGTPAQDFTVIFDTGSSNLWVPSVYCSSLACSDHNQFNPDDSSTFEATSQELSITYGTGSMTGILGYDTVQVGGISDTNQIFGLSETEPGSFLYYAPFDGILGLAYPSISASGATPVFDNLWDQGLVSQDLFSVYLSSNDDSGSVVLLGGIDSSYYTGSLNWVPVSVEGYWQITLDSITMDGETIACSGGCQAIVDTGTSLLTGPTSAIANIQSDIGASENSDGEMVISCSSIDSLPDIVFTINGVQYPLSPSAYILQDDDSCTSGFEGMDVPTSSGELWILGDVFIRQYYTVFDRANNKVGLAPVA

Compound	Live/dead (SYTO9/PI) imaging of HEK293T cells (HEK293T cells)	MIC E. coli 25922 (E. coli ATCC25922) [µM]	MIC S. aureus 6538 (S. aureus ATCC6538) [µM]	MIC S.epidermidis 49134 (S.epidermidis 49134) [µM]	MIC S. aureus 1882 (S. aureus CVCC1882) [µM]	MIC P. aeruginosa 27853 (P. aeruginosa 27853) [µM]	MHC (porcine red blood cells)	Antibacterial activity (MIC) after treatment with trypsin (trypsin)	Antibacterial activity (MIC) after treatment with pepsin (pepsin)	RP-HPLC peak shape and area after treatment with pepsin (pepsin)	Antibacterial activity (MIC) after treatment with chymotrypsin (chymotrypsin)	Side effects on mice (C57BL/6 mice)	MIC C. rodentium DBS100 (C. rodentium DBS100) [µM]
CCCCCCCCCCCCCC(=O)N1CCC[C@H]1C(=O)N[C@@H](Cc1ccccc1)C(=O)N1CCC[C@H]1C(=O)N[C@@H](Cc1ccccc1)C(=O)N1CCC[C@H]1C(=O)N[C@@H](Cc1ccccc1)C(=O)N1CCC[C@H]1C(=O)N[C@@H](CCCCN)C(=O)N1CCC[C@H]1C(=O)N[C@@H](CCCCN)C(=O)N1CCC[C@H]1C(=O)N[C@@H](CCCCN)C(=O)N1CCC[C@H]1C(=O)N[C@@H](CCCCN)C(=O)N1CCC[C@H]1C(=O)N[C@@H](CCCCN)C(=O)N1CCC[C@H]1C(=O)N[C@@H](CCCCN)C(=O)N1CCC[C@H]1C(=O)NCCOCCOCCOCCOCCOCCOCCOCCOCCC(N)=O [NPs3] (Myristoyl-PFPFPFPKPKPKPKPKPKP[PEG8]-NH2)	only led to a few cell deaths	9.3 ± 3.0 (≈ 26.3 µg/mL)	7.3 ± 1.5 (≈ 20.7 µg/mL)	9.3 ± 3.0 (≈ 26.3 µg/mL)	14.7 ± 3.0 (≈ 41.6 µg/mL)	21.3 ± 7.5 (≈ 60.3 µg/mL)	> 128						
CCCCCCCCCCCCCC(=O)N1CCC[C@H]1C(=O)N[C@@H](Cc1ccccc1)C(=O)N1CCC[C@H]1C(=O)N[C@@H](Cc1ccccc1)C(=O)N1CCC[C@H]1C(=O)N[C@@H](Cc1ccccc1)C(=O)N1CCC[C@H]1C(=O)N[C@@H](CCCCNC(=O)CCOCCOCCOCCOCCOCCOCCOCCOCCN)C(=O)N1CCC[C@H]1C(=O)N[C@@H](CCCCN)C(=O)N1CCC[C@H]1C(=O)N[C@@H](CCCCN)C(=O)N1CCC[C@H]1C(=O)N[C@@H](CCCCN)C(=O)N1CCC[C@H]1C(=O)N[C@@H](CCCCN)C(=O)N1CCC[C@H]1C(=O)N[C@@H](CCCCN)C(=O)N1CCC[C@H]1C(N)=O [NPs1] (Myristoyl-PFPFPFPK(PEG8)PKPKPKPKPKP-NH2)	only led to a few cell deaths	9.3 ± 3.0 (≈ 26.3 µg/mL)	5.3 ± 1.9 (≈ 15 µg/mL)			12.0 ± 4.0 (≈ 34 µg/mL)	> 128	remained essentially unchanged	remained essentially unchanged	remained intact	remained essentially unchanged	negligible	
CCCCCCCCCCCCCC(=O)N1CCC[C@H]1C(=O)N[C@@H](Cc1ccccc1)C(=O)N1CCC[C@H]1C(=O)N[C@@H](Cc1ccccc1)C(=O)N1CCC[C@H]1C(=O)N[C@@H](Cc1ccccc1)C(=O)N1CCC[C@H]1C(=O)N[C@@H](CCCCN)C(=O)N1CCC[C@H]1C(=O)N[C@@H](CCCCN)C(=O)N1CCC[C@H]1C(=O)N[C@@H](CCCCN)C(=O)N1CCC[C@H]1C(=O)N[C@@H](CCCCN)C(=O)N1CCC[C@H]1C(=O)N[C@@H](CCCCN)C(=O)N1CCC[C@H]1C(=O)N[C@@H](CCCCNC(=O)CCOCCOCCOCCOCCOCCOCCOCCOCCN)C(=O)N1CCC[C@H]1C(N)=O [NPs2] (Myristoyl-PFPFPFPKPKPKPKPKPK(PEG8)P-NH2)	only led to a few cell deaths	8 (≈ 22.7 µg/mL)	6.7 ± 1.9 (≈ 19 µg/mL)	9.3 ± 3.0 (≈ 26.3 µg/mL)	10.0 ± 4.5 (≈ 28.3 µg/mL)	13.3 ± 3.8 (≈ 37.7 µg/mL)	> 128	remained essentially unchanged	remained essentially unchanged	remained intact	remained essentially unchanged	negligible	6.7 ± 1.9 (≈ 19 µg/mL)
